# Literature values as cited in PMC10714399, “Open Source Antibiotics: Simple Diarylimidazoles Are Potent against Methicillin-Resistant Staphylococcus aureus” (ACS Infectious Diseases, 2023).
# What was measured:
# [1] = biological target: transforming growth factor β1 (TGF-β1) type I receptor (ALK5); set-up: method as in earlier work; settings: read-out: IC50 against ALK5; cited from earlier work
# p38 kinase = test system: p38 kinase; set-up: method as in earlier work; settings: cited from earlier work
# [2] = test system: TGF-β1-induced fibronectin mRNA formation; set-up: method as in earlier work; settings: cited from earlier work
# [3] = set-up: method as in earlier work; settings: 48 h XTT assay; read-out: CC50, cytotoxicity; cited from earlier work
compound,measurement,setting,value
NC(=O)c1ccc(-c2nc(-c3ccc4c(c3)OCO4)c(-c3ccccn3)[nH]2)cc1 [SB-431542],IC50,[1],94 nM
same,inhibition of p38 kinase,p38 kinase,no inhibition
same,IC50,[2],50 nM
same,CC50,[3],> 30000 nM
